Reference: publication PMC10999558, “Analyzing resistome in soil and Human gut: a study on the characterization and risk evaluation of antimicrobial peptide resistance” (Frontiers in Microbiology, 2024)

What was measured:
Assay type in all cases: cell-based, Escherichia coli
Settings in all cases: MHB, 37°C, 24 h, triplicate
E. coli DH5α = experiment: MIC, broth microdilution, E. coli DH5α carrying pUC118 or resistance-conferring plasmids
Experimental: (§1) Escherichia coli DH5α, E. coli BL21(DE3), and E. coli JM109 were utilized in this study.
(§2) The MICs were determined using the broth microdilution method in 96-well microtiter plates ([Wiegand et al., 2008]). In brief, a 1:100 dilution of the mid-exponential phase bacterial culture (OD600 = 0.5), consisting of 5 μL (1 × 10^5 CFU/mL), was introduced into polypropylene 96-well plates. These plates contained a two-fold dilution series of AMP in a total volume of 100 μL MHB per well. The incubation of the plates occurred at 37°C in a humidity chamber. The MIC was identified as the lowest concentration that hindered visible bacterial growth after 24 h of incubation. Each experiment was conducted in triplicate.
(§3) Following validation, the colonies displaying resistance underwent additional testing via MIC assessments for the remaining four AMPs that were not employed during the selection process. This experimental procedure was carried out in triplicate.

E. coli BL21(DE3) = experiment: MIC, broth microdilution, retransformed E. coli BL21(DE3)
Experimental: as §1, §2
(§4) Before washing down the colonies, we randomly selected two clones from each plate containing distinct AMP. Colony PCRs were conducted using M13 primer pairs to validate the presence of inserts and determine their sizes. The selected colonies were then subjected to sequencing. The specific details are provided in Supplementary Table S2. Following that, plasmids were isolated using the Plasmid Midiprep Kit (Zomanbio, ZP103) following the manufacturer’s guidelines. After the plasmids were successfully reintroduced into E. coli JM109 and E. coli BL 21(DE3), the MICs of the transformed strains against the AMP used for selection were tested. This testing process was carried out in triplicate.
as §3

E. coli JM109 = experiment: MIC, broth microdilution, retransformed E. coli JM109
Experimental: as §1, §2, §4, §3

Measured: MIC

Iseganan [IB367]
32 µg/mL: E. coli DH5α; colony pUC118-FGQ2-DH5α (feces insert 2 selected against melittin) | E. coli DH5α; colony pUC118-FIB1-DH5α (feces insert 1 selected against iseganan) | E. coli DH5α; colony pUC118-FIB2-DH5α (feces insert 2 selected against iseganan) | E. coli DH5α; colony pUC118-FPB1-DH5α (feces insert 1 selected against polymyxin B) | E. coli DH5α; colony pUC118-SIB1-DH5α (soil insert 1 selected against iseganan) | E. coli DH5α; colony pUC118-SIB2-DH5α (soil insert 2 selected against iseganan) | E. coli DH5α; colony pUC118-SSA1-DH5α (soil insert 1 selected against cathelicidin-DM) | E. coli DH5α; colony pUC118-SSA2-DH5α (soil insert 2 selected against cathelicidin-DM) | E. coli BL21(DE3); colony pUC118-FGQ2- BL21(DE3) (feces insert 2 selected against melittin) | E. coli BL21(DE3); colony pUC118-FIB1-BL21(DE3) (feces insert 1 selected against iseganan) | E. coli BL21(DE3); colony pUC118-FIB2-BL21(DE3) (feces insert 2 selected against iseganan) | E. coli BL21(DE3); colony pUC118-FPB1-BL21(DE3) (feces insert 1 selected against polymyxin B) | E. coli BL21(DE3); colony pUC118-SIB1-BL21(DE3) (soil insert 1 selected against iseganan) | E. coli BL21(DE3); colony pUC118-SIB2-BL21(DE3) (soil insert 2 selected against iseganan) | E. coli BL21(DE3); colony pUC118-SSA1-BL21(DE3) (soil insert 1 selected against cathelicidin-DM) | E. coli JM109; colony pUC118-FIB2-JM109 (feces insert 2 selected against iseganan) | E. coli JM109; colony pUC118-FPB1-JM109 (feces insert 1 selected against polymyxin B) | E. coli JM109; colony pUC118-SIB1-JM109 (soil insert 1 selected against iseganan)
8 µg/mL: E. coli JM109; colony pUC118-FCST1-JM109 (feces insert 1 selected against colistin) | E. coli JM109; colony pUC118-FCST2-JM109 (feces insert 2 selected against colistin) | E. coli JM109; colony pUC118-FGQ1-JM109 (feces insert 1 selected against melittin) | E. coli JM109; colony pUC118-FPB2-JM109 (feces insert 2 selected against polymyxin B) | E. coli JM109; colony pUC118-FSA1-JM109 (feces insert 1 selected against cathelicidin-DM) | E. coli JM109; colony pUC118-FSA2-JM109 (feces insert 2 selected against cathelicidin-DM) | E. coli JM109; colony pUC118-JM109 (control, no insert) | E. coli JM109; colony pUC118-SCST1-JM109 (soil insert 1 selected against colistin) | E. coli JM109; colony pUC118-SCST2-JM109 (soil insert 2 selected against colistin) | E. coli JM109; colony pUC118-SGQ1-JM109 (soil insert 1 selected against melittin) | E. coli JM109; colony pUC118-SGQ2-JM109 (soil insert 2 selected against melittin) | E. coli JM109; colony pUC118-SPB1-JM109 (soil insert 1 selected against polymyxin B) | E. coli JM109; colony pUC118-SPB2-JM109 (soil insert 2 selected against polymyxin B)
16 µg/mL: E. coli DH5α; E. coli DH5α containing pUC118 plasmids | E. coli DH5α; colony pUC118-DH5α (control, no insert) | E. coli DH5α; colony pUC118-FCST1-DH5α (feces insert 1 selected against colistin) | E. coli DH5α; colony pUC118-FCST2-DH5α (feces insert 2 selected against colistin) | E. coli DH5α; colony pUC118-FGQ1-DH5α (feces insert 1 selected against melittin) | E. coli DH5α; colony pUC118-FPB2-DH5α (feces insert 2 selected against polymyxin B) | E. coli DH5α; colony pUC118-FSA1-DH5α (feces insert 1 selected against cathelicidin-DM) | E. coli DH5α; colony pUC118-FSA2-DH5α (feces insert 2 selected against cathelicidin-DM) | E. coli DH5α; colony pUC118-SCST1-DH5α (soil insert 1 selected against colistin) | E. coli DH5α; colony pUC118-SCST2-DH5α (soil insert 2 selected against colistin) | E. coli DH5α; colony pUC118-SGQ1-DH5α (soil insert 1 selected against melittin) | E. coli DH5α; colony pUC118-SGQ2-DH5α (soil insert 2 selected against melittin) | E. coli DH5α; colony pUC118-SPB1-DH5α (soil insert 1 selected against polymyxin B) | E. coli DH5α; colony pUC118-SPB2-DH5α (soil insert 2 selected against polymyxin B) | E. coli BL21(DE3); colony pUC118-BL21(DE3) (control, no insert) | E. coli BL21(DE3); colony pUC118-FCST1-BL21(DE3) (feces insert 1 selected against colistin) | E. coli BL21(DE3); colony pUC118-FCST2-BL21(DE3) (feces insert 2 selected against colistin) | E. coli BL21(DE3); colony pUC118-FGQ1-BL21(DE3) (feces insert 1 selected against melittin) | E. coli BL21(DE3); colony pUC118-FPB2-BL21(DE3) (feces insert 2 selected against polymyxin B) | E. coli BL21(DE3); colony pUC118-FSA1-BL21(DE3) (feces insert 1 selected against cathelicidin-DM) | E. coli BL21(DE3); colony pUC118-FSA2-BL21(DE3) (feces insert 2 selected against cathelicidin-DM) | E. coli BL21(DE3); colony pUC118-SCST1-BL21(DE3) (soil insert 1 selected against colistin) | E. coli BL21(DE3); colony pUC118-SCST2-BL21(DE3) (soil insert 2 selected against colistin) | E. coli BL21(DE3); colony pUC118-SGQ1-BL21(DE3) (soil insert 1 selected against melittin) | E. coli BL21(DE3); colony pUC118-SGQ2-BL21(DE3) (soil insert 2 selected against melittin) | E. coli BL21(DE3); colony pUC118-SPB1-BL21(DE3) (soil insert 1 selected against polymyxin B) | E. coli BL21(DE3); colony pUC118-SPB2-BL21(DE3) (soil insert 2 selected against polymyxin B) | E. coli BL21(DE3); colony pUC118-SSA2-BL21(DE3) (soil insert 2 selected against cathelicidin-DM) | E. coli JM109; colony pUC118-FGQ2-JM109 (feces insert 2 selected against melittin) | E. coli JM109; colony pUC118-FIB1-JM109 (feces insert 1 selected against iseganan) | E. coli JM109; colony pUC118-SIB2-JM109 (soil insert 2 selected against iseganan) | E. coli JM109; colony pUC118-SSA1-JM109 (soil insert 1 selected against cathelicidin-DM) | E. coli JM109; colony pUC118-SSA2-JM109 (soil insert 2 selected against cathelicidin-DM)
